Literature values in patent publication US20070015728A1, “Metered-dose and safety and compliance packaging for systemic anticancer therapy” (priority 2005, published 2007).

Legend:
OPRT = target: T1, OPRT (Homo sapiens, UniProt P11172); conditions: neutral pH
T1 sequence (P11172 1-480): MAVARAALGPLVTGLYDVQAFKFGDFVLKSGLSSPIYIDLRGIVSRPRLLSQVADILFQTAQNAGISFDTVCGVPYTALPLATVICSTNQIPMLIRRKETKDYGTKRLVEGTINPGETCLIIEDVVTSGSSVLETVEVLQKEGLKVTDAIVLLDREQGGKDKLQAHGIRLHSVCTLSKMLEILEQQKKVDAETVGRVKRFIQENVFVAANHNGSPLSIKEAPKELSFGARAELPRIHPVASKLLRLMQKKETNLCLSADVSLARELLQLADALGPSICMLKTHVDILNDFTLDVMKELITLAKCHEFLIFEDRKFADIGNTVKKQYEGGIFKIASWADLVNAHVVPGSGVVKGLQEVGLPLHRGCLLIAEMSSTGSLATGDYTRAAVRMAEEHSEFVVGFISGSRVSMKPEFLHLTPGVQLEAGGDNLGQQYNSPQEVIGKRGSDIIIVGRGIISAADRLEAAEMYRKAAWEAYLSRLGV

hand-foot syndrome (HFS) = conditions: treatment with capecitabine at the FDA-approved dose; XELODA product insert

SMILES	Km for OPRT, fold lower than 5-FU (OPRT) [fold]	grade 3 incidence of HFS (hand-foot syndrome (HFS))	incidence of HFS irrespective of grade (hand-foot syndrome (HFS))
O=C(O)c1cc(=O)[nH]c(=O)[nH]1 [Orotate]	~50		
CCCCCOC(=O)Nc1nc(=O)n([C@@H]2O[C@H](C)[C@@H](O)[C@H]2O)cc1F [Xeloda, Capecitabine]		11-17%	54%-67%
